Assay results: PubChem BioAssay AID2198 (Vanderbilt High Throughput Screening Facility, 2009)
Active and inactive are the calls of the source.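 The calls were made as follows: active = mean EC50 under 30 µM; inactive = the rest.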

Target: Muscarinic acetylcholine receptor M5 (Homo sapiens) (UniProt P08912)
Assay: potentiation of ACh EC20 at hM5 – cell-based, calcium, SAR follow-up (AID 2198)
Details: CHO-K1 hM5, Fluo-4 calcium

Chain of Muscarinic acetylcholine receptor M5 (Homo sapiens) (P08912 whole entry, looked up): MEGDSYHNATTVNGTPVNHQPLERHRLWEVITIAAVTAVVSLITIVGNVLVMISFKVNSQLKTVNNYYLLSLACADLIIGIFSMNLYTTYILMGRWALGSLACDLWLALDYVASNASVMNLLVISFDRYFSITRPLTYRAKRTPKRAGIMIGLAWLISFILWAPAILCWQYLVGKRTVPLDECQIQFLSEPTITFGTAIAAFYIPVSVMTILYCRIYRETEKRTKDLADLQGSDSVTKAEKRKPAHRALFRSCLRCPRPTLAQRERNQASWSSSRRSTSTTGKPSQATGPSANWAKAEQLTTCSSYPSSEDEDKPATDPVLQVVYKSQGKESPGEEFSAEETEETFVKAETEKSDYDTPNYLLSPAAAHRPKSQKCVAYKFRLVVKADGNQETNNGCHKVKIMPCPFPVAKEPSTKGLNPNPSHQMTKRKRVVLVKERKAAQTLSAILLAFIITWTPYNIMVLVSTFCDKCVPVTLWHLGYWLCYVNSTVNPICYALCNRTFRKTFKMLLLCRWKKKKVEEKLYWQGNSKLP

EC50 | Compound
1.16 µM | COc1ccc(CN2C(=O)C(=O)c3cc(OC(F)(F)F)ccc32)cc1
1.7 µM | COc1cccc(CN2C(=O)C(=O)c3cc(OC(F)(F)F)ccc32)c1
> 30 µM (inactive) | O=C1C(=O)N(Cc2ccc(Br)cc2F)c2ccc(OC(F)(F)F)cc21
1.93 µM | O=C1C(=O)N(Cc2ccc(Br)cc2)c2c(F)cccc21
4.07 µM | O=C1C(=O)N(Cc2ccccc2Cl)c2ccc(OC(F)(F)F)cc21
1.86 µM | O=C1C(=O)N(Cc2ccc(OC(F)(F)F)cc2)c2ccc(OC(F)(F)F)cc21
3.28 µM | Cc1ccccc1CN1C(=O)C(=O)c2cc(OC(F)(F)F)ccc21
1.85 µM | O=C1C(=O)N(Cc2ccc(C(F)(F)F)cc2)c2ccc(OC(F)(F)F)cc21
4.66 µM | O=C1C(=O)N(Cc2ccc(Br)cc2F)c2c(Cl)cccc21
3.96 µM | COc1ccc(CN2C(=O)C(=O)c3cccc(Cl)c32)cc1
3.19 µM | O=C1C(=O)N(Cc2ccc(C(F)(F)F)cc2)c2ccccc21
> 30 µM (inactive) | COc1ccc(CN2C(=O)C(=O)c3ccccc32)cc1
> 30 µM (inactive) | O=C1C(=O)N(Cc2ccccc2C(F)(F)F)c2ccc(F)cc21
3.26 µM | O=C1C(=O)N(Cc2ccc(C(F)(F)F)cc2)c2c(F)cccc21
3.3 µM | O=C1C(=O)N(Cc2ccc(C(F)(F)F)cc2)c2ccc(Cl)cc21
> 30 µM (inactive) | O=C1C(=O)N(Cc2ccccc2C(F)(F)F)c2c(F)cccc21
7.15 µM | COc1cccc(CN2C(=O)C(=O)c3c(Cl)ccc(Cl)c32)c1
